Results published in US10233415B1, “Microfluidics cell culture device” (The Regents of the University of California, priority 2013, dated 2019).
Like-named read-outs stand apart in the source and are kept apart here. Each block holds one compound with its values, some of them ahead of it.

Columns and labels:
[1] = tested on: hiPSC-CM derived cardiac tissue (WTC CMs) in the cardiac MPS; assay: Cardiac MPS beat rate (motion tracking) drug response; format: cell-based, human; details: for effect on beats per minute (BPM): dose response
Text: A cardiac MPS that incorporates an in vitro 3D model of the human myocardium consisting of aligned CMs derived from hiPS cells was designed, fabricated and characterized with various in and ex situ monitoring tools. […] To characterize the functionality of the cardiac model, a motion tracking method capable of massive parallelization and high throughput analysis based on bright field microscopy as well as a custom made MEA enabling electrophysiological measurements inside the MPS was developed.
As an alternative to MEAs, a computational motion tracking method capable of performing high throughput analysis was developed. The computational motion tracking method analyzed the beating motion of cardiac tissue based on simple bright field movies (FIGS. 6A-C).
Drugs from classes that target a different physiological effect (i.e. ion channel, stimulant) were chosen, and the IC50 or EC50 values were determined.

[2] = tested on: LQT3 hiPSC-CM derived cardiac tissue in the MPS; assay: LQT3 cardiac tissue in the MPS, beat frequency response; format: cell-based, human
Method: When fed continuously the tissue remained viable and functional for more than one month. Healthy and LQTS hiPSC-CM-derived cardiac tissue in the MPS were viable and amenable to continuous monitoring (e.g., MEA) and sampling for over 4 weeks. Beating tissues were created and loaded from multiple iPS cell lines, a disease cell line (LQT3), and the GCaMP6 isogenic reporter cell line.
FIG. 7. […] (B) Time dependent effect of 1 μM Isoproterenol (ISO) on bpm. * p<0.05 vs baseline.

[3] = tested on: adult human slice; details: adult human slice contractility; read-out: EC50 for the effect on adult human slice contractility; cited from earlier work

IC50 ([1]; cardiac MPS, beat rate, read-out: IC50, dose dependent decrease of beat rate / beats per minute): 392 nM
Structure (SMILES): Cc1cccc(CCN2CCC(C(=O)c3ccc(NS(C)(=O)=O)cc3)CC2)n1 [E-4031]

EC50 ([1]; Homo sapiens, cardiac MPS, beat rate, read-out: EC50, concentration dependent increase on absolute beating (beats per minute)): 315 nM
Structure (SMILES): CC(C)NCC(O)c1ccc(O)c(O)c1 (stereo not drawn) [Isoproterenol]
beat frequency ([2]; 100 nM concentration): no effect | beat frequency ([2]; 10 min exposure to 1 μM): approximately doubled | effect on beats per minute (BPM) ([1]; cardiac MPS): dose-dependent increase | beat rate ([1]; subsequent exposure to 1 μM, same device, after at least 48 hours wash): increased the beat rate | EC50 [3]: 100 to 200 nM

IC50 ([1]; Homo sapiens, cardiac MPS, beat rate, read-out: IC50, dose dependent decrease of beat rate): 244000 nM
Structure (SMILES): COCCc1ccc(OCC(O)CNC(C)C)cc1 (stereo not drawn) [Metoprolol]

Structure (SMILES): COc1ccc(CCN(C)CCCC(C#N)(c2ccc(OC)c(OC)c2)C(C)C)cc1OC (stereo not drawn) [Verapamil]
IC50 ([1]; Homo sapiens, read-out: IC50, dose dependent decrease of beat rate / beats per minute): 950 nM | spontaneous beating ([1]; at high doses): abolished spontaneous beating | effect on beats per minute (BPM) ([1]; cardiac MPS): dose-dependent decrease | beat rate ([1]; exposure to 1 nM, multiple exposures on the same device): decreased the beat rate
